Laboratory results published in article PMC5995255, “CD44 positive and sorafenib insensitive hepatocellular carcinomas respond to the ATP-competitive mTOR inhibitor INK128” (Oncotarget, 2018).

Columns and labels:
[1] = tested on: HCC cell lines (SNU423, SNU449 and Huh7); assay: Cell proliferation, WST-1 assay, three HCC cell lines; type: cell-based, human; conditions: 48 h
[2] = tested on: CD44 and vimentin protein expression in SNU423 cells; assay: Immunoblotting of CD44 and vimentin protein; type: cell-based, human; conditions: 48 h; SNU423 (rapalogs also SNU449)
Procedure: (§1) Cell protein lysates (20–30 μg) were separated on NuPAGE 4–12% Bis-Tris gels (Novex) electrophoretically and transferred to polyvinylidene difluoride membranes (Roche). Membranes were blocked for 1 h with 5% Bovine Serum Albumin in Tris-buffered saline containing 0.05% Tween 20 and incubated overnight with primary antibody. The following primary antibodies were used: anti-CD44 (Cell signaling, #3578), anti-vimentin (Abcam, ab92547), anti-total S6K (Cell signaling, # 2708), anti-phosphorylated S6K (Cell signaling, #9234), anti-total 4EBP-1 (Cell signaling, #9644), anti-phosphorylated 4EBP-1(Cell signaling, #2855) and anti-PARP (Cell signaling # 9532) Anti-GAPDH (Santa Cruz Biotechnology, sc-32233) and anti-β actin (Cell Signaling, 4970S) antibodies were used as loading controls. A secondary anti-rabbit (Cell Signaling) or anti-mouse immunoglobulin G (IgG) antibody peroxidase conjugate (GE Healthcare) was detected using ECL Western Blotting Analysis System (Amersham Biosciences).

phosphorylation of S6K = assay: Immunoblotting of phosphorylated S6K; type: cell-based, human; conditions: CD44high cells; 48 h
Procedure: as §1

phosphorylation of 4EBP1 = assay: Immunoblotting of phosphorylated 4EBP1; type: cell-based, human; conditions: CD44high cells; 48 h
Procedure: as §1

[3] = tested on: SK-Hep1 subcutaneous xenografts; assay: SK-Hep1 xenograft efficacy study; type: in vivo, athymic nude mice
Procedure: Immunodeficient athymic nude male mice (8 weeks) were obtained from Charles River laboratories and kept in the University's animal housing facility. SK-Hep1 cells were prepared from a low-passage, logarithmically growing population of cells. SK-Hep1 (3 × 10^6 cells) were suspended in 150 ul of Matrigel (Corning, NY, USA) and injected subcutaneously into the right flank of the mice. Three weeks after implantation, tumor sizes were measured using a Fisherbrand™ Traceable™ Digital Caliper (Thermo), the animals were randomized based on tumor size, and treatment was initiated. Tumor size measurements were taken twice a week throughout the treatment period.
Athymic nude mice bearing SK-Hep1 tumors were randomized into four groups (n = 10 per group); vehicle, sorafenib, INK128 and combination. Sorafenib (10 mg/kg) was prepared as a 4× stock solution in cremophor EL:ethanol (50:50), and diluted using water on the day of the treatment. Vehicle and sorafenib groups received their respective treatments every day via oral gavage. INK128 (3 mg/kg) was prepared in 10% DMSO and dosed via oral gavage every other day. The combination group received a daily dose of sorafenib (10 mg/kg) along with INK128 (3 mg/kg) every other day. Mice were monitored every day, and body weight and tumor size measurements were recorded twice a week throughout the treatment period. Tumor volume was calculated using the equation V= ½ × L × W^2. Treatment was continued for 24 days after which the animals were euthanized. Tumor growth is represented as percentage change from baseline tumor volume.

[4] = tested on: Huh7CD44, PLC/PRF/5CD44, Huh7EV and PLC/PRF/5EV cells; assay: Cell proliferation, WST-1 assay, CD44 overexpressing versus empty vector cells; type: cell-based, human; conditions: 72 h
Procedure: An optimized DNA fragment for CD44 overexpression was designed and ordered from Invitrogen using GeneArt® Gene Synthesis. The optimized DNA fragment was cloned using GeneArt® Seamless Cloning technology into a p-EGFP-C1 vector graciously obtained from Matthew Wood's Lab. Huh7 and PLC/PRF/5 cells (CD44low) were transfected with 1500 ng of either CD44 vector or empty vector using Lipofectamine 3000 (Invitrogen). Forty-eight h after transfection, cells were selected using 150 μg/ml hygromycin (Life Technologies). Western blotting was used to confirm successful transfection and expression of CD44.

SNU423 cells = assay: Wound healing (in vitro migration) assay; type: cell-based, human; conditions: 500 nM; 30 h migration
Procedure: SNU423 cells were treated with either INK128 or everolimus at 500 nM or vehicle control (1% DMSO). At 24 h after treatment or transfection, 70 μl of the treated cells (3 × 10^5 cells/mL) was placed into each well of ibidi culture-insert (ibidi, LLC). After an overnight incubation, the culture insert was removed to create a cell-free gap in a monolayer of the cells. The gap closure area was photographed and analyzed by Tscratch software. Wound healing assay was further performed using Huh7 and PLC/PRF/5 cells to determine the effects of CD44 overexpression of migration. The percentage of the gap closure area based on the initial point at time zero was calculated from at least two independent experiments.

[5] = tested on: CD44high HCC cells (SNU423, SNU449, SK-Hep-1); assay: Cell proliferation, WST-1 assay, CD44high HCC cells; type: cell-based, human
[6] = tested on: CD44 or vimentin mRNA in SNU423 cells; assay: qRT-PCR of CD44 and vimentin mRNA; type: cell-based, human; conditions: 500 nM; 48 h
Procedure: Total RNA was isolated from ATP-competitive mTOR inhibitor treated cells using miRNeasy® Mini kit (Qiagen). cDNA was synthesized according to the manufacturer's protocol (Invitrogen). Five hundred ng of total RNA was used to synthesize cDNA using random primers. cDNA was analyzed for gene expression using gene specific primers (IDT) and the Express SYBR® GreenER qPCR super mix (Invitrogen). Data were normalized to 18S rRNA and the relative expression of genes was presented using the comparative CT method. The following primers were used; CD44: 5′-TGCAGTT […]-3′ (forward) and 5′-[…]-3′ (reverse), Vimentin: 5′-CAGC […]-3′ (forward) and 5′-ATCCT […]-3′ (reverse), 18S: 5′-GT […]-3′(forward) and 5′-CCAT […]-3′(reverse)

[7] = INK128 plasma pharmacokinetic study; type: in vivo, ICR mice
Procedure: All animal experiments were carried out under protocols approved by the Institutional Laboratory Animal Care and Use Committee at the Ohio State University. Imprinting control region (ICR) female mice (6 weeks) were obtained from Charles Rivers (Wilmington, MA, USA). Mice were acclimated in the animal housing facility for one week before the start of the study. After overnight fasting, INK128 (3 mg/kg) was administered by oral gavage (PO) in 10% DMSO. At different time points, mice were euthanized by carbon dioxide asphyxiation, and blood was immediately collected by cardiac puncture into lithium heparinized tubes (BD Microtainer, Becton, Dickson and Company, NJ, USA). Blood samples were centrifuged at 6000 × g for 5 min at 4°C. Plasma was collected and kept on dry ice before being stored at −80°C until analysis.
Plasma samples were thawed on ice. Blank mouse plasma was used for standard curves. Plasma aliquots (100 ul) were spiked with hesperetin (10 ul, 5000 ng/ml) as an internal standard and mixed by vortexing. Drugs were extracted with simple protein precipitation using cold acetonitrile, and the mixture was centrifuged at 13000 × g for 10 min. The supernatant was collected and dried under nitrogen. Dried samples were reconstituted with 200 ul 1% formic acid. Samples were analyzed using liquid chromatography–tandem mass spectrometry (LC-MS/MS) system consisting of Thermo Accela UHPLC pump, Thermo PAL autosampler, and Thermo TSQ Discovery triple quadruple mass spectrometer (Thermo, Waltham, MA, USA). Chromatographic separation was done using an Agilent Zobrax Extend C-18 column. Linear gradient elution was used at a flow rate of 400 ul/min, with a mobile phase of […] and 95% acetonitrile, modified with 0.2% formic acid. Non-compartmental analysis of the pharmacokinetic parameters as well as compartmental model fitting of the data was carried using Phoenix® 7.0 (Certara, New Jersey, USA).

[8] = tested on: sorafenib resistant Huh7 cells; assay: Cell proliferation, WST-1 assay, sorafenib resistant Huh7; type: cell-based, human; conditions: 72 h
Procedure: A sorafenib-resistant Huh7 cell line was established by long term exposure to incremental concentrations of sorafenib (LC Laboratories, USA) as reported. Following six months of culture in 10 cm cell culture dishes, resistant cells were diluted out in 96 well plates and single cell clones were selected and scaled up to be used in further experiments.

[9] = 3 mg/kg oral gavage, single dose, plasma
[10] = female, ICR, mouse, plasma, po, 3 mg/kg, 3 mg/kg oral gavage, single dose
[11] = female, ICR, mouse, 3 mg/kg oral gavage, single dose, plasma

Structure (SMILES): CO[C@H]1C[C@@H]2CC[C@@H](C)[C@@](O)(O2)C(=O)C(=O)N2CCCC[C@H]2C(=O)O[C@H]([C@H](C)C[C@@H]2CC[C@@H](O)[C@H](OC)C2)CC(=O)[C@H](C)/C=C(\C)[C@@H](O)[C@@H](OC)C(=O)[C@H](C)C[C@H](C)/C=C/C=C/C=C/1C [rapamycin]
- proliferation (lowest level reached) [1]: ≥ 40%
- CD44 and vimentin protein expression [2]: did not alter
- phosphorylation of S6K (phosphorylation of S6K): blocked
- phosphorylation of 4EBP1 (phosphorylation of 4EBP1): did not inhibit

Structure (SMILES): CNC(=O)c1cc(Oc2ccc(NC(=O)Nc3ccc(Cl)c(C(F)(F)F)c3)cc2)ccn1 [sorafenib]
- tumor size increase compared to baseline ([3]; 10 mg/kg daily oral gavage, 24 days): 46%
- inhibition in tumor growth compared to vehicle control ([3]; 10 mg/kg daily oral, not significant): approximately 15%
- ability to reduce proliferation as a function of CD44 protein [4]: no difference

Structure (SMILES): CO[C@H]1C[C@@H]2CC[C@@H](C)[C@@](O)(O2)C(=O)C(=O)N2CCCC[C@H]2C(=O)O[C@H]([C@H](C)C[C@@H]2CC[C@@H](OCCO)[C@H](OC)C2)CC(=O)[C@H](C)/C=C(\C)[C@@H](O)[C@@H](OC)C(=O)[C@H](C)C[C@H](C)/C=C/C=C/C=C/1C [everolimus]
- proliferation (lowest level reached) ([1]; even at 5000 nM): ≥ 40%
- decrease of cell movement compared to vehicle control (SNU423 cells): 20%
- CD44 and vimentin protein expression [2]: did not alter
- phosphorylation of S6K (phosphorylation of S6K): blocked
- phosphorylation of 4EBP1 (phosphorylation of 4EBP1): did not inhibit

Structure (SMILES): CC(C)n1nc(-c2ccc3oc(N)nc3c2)c2c(N)ncnc21 [INK128]
- reduction of proliferation in CD44high compared to CD44low cells ([5]; 72 h, CD44low: Huh7, PLC/PRF/5, HepG2): more effective
- inhibition at 0.1 µM ([5]; Homo sapiens, 100 nM, CD44high cells (Figure 1C), read-out: inhibition in cellular proliferation): 60%
- anti-proliferative activity versus allosteric mTOR inhibitors ([5]; SNU423 and SNU449 cells, 48 h): better anti-proliferative activity than rapamycin and everolimus
- decrease of cell movement compared to vehicle control (SNU423 cells): 50%
- CD44 and vimentin protein expression [2]: great reduction
- phosphorylation of S6K (phosphorylation of S6K): inhibited
- phosphorylation of 4EBP1 (phosphorylation of 4EBP1): inhibited
- CD44 or vimentin mRNA [6]: no change
- time with drug concentrations greater than 100 nM ([7]; 3 mg/kg oral gavage): approximately 16 h
- CL [7, 9]: 0.000582 L/min
- Cmax [7, 9]: 2030 nM
- tolerability ([7]; 3 mg/kg oral, all animals of the pharmacokinetic study): well tolerated
- Cmax [7, 10]: 2030 nM
- Tmax [7, 10]: ≤ 0.25 h
- concentration at 24 h ([7]; female, ICR, mouse, plasma, 3 mg/kg oral gavage, 24 h, read-out: plasma concentration 24 h post dose): 24.6 nM
- AUC(0-t) [7, 11]: 7.38 µM·h
- half-life [7, 11]: 1.81 h
- reduction of tumor burden compared to vehicle control or sorafenib alone ([3]; 3 mg/kg every other day oral): up to 30%
- reduction in tumor volume (from baseline) ([3]; INK128 3 mg/kg every other day oral, alone or with sorafenib 10 mg/kg daily, 24 days): 24%
- anti-proliferative response of CD44 expressing cells versus empty vector cells ([4]; 500 nM): responded better
- anti-proliferative effects versus wildtype CD44low Huh7 cells [8]: greater anti-proliferative effects
